Experimental data taken from publication PMC5487684, “Safety, Pharmacokinetics, and Antiviral Activity of a Novel HIV Antiviral, ABX464, in Treatment-Naive HIV-Infected Subjects in a Phase 2 Randomized, Controlled Study” (Antimicrobial Agents and Chemotherapy, 2017).

Tested on: HIV-infected subjects
Experiment: Safety and tolerability (TEAEs, ECG, laboratory) after repeated oral administration, phase 2a study
Type: in vivo, human
Description: Participants were assigned to one of eight groups; each group (with one exception) included eight subjects receiving either ABX464 (n = 6) or the corresponding placebo (n = 2) according to a randomization code. […] In the present study with HIV-infected subjects, the first dose administered was 25 mg, given once or 3 times a day over a 2- to 3-week period. This initial dose was therefore considered safe for assessment of the safety and tolerability of ABX464 after repeated oral administrations in subjects infected by HIV and determination of the potential effect on the HIV viral load.
The final dosing protocol for each of the eight groups was as follows: group 1, 25 mg every 3 days for 2 to 3 weeks under fasted conditions; group 2, 25 mg once a day (q.d.) for 2 to 3 weeks under fasted conditions; group 3, 50 mg once a day for 2 to 3 weeks under fasted conditions; group 4, 50 mg 3 times a day (t.i.d.) for 4 weeks under fed conditions; group 5, 75 mg once a day for 2 weeks under fed conditions; group 6, 100 mg once a day for 2 to 3 weeks under fasted conditions; group 7, 150 mg every 3 days for 2 to 3 weeks under fed conditions; and group 8, 150 mg once a day for 2 weeks under fed conditions. Per the study protocol, the treatment period was defined as 2 weeks. […] The decision to proceed to the next highest dose was determined by the data and safety monitoring board after review of the laboratory safety data, vital signs, ECGs, and adverse event reports from the group receiving the current dose after 2 weeks of treatment.
Subjects were hospitalized from the day prior to the first dose to at least the morning of day 2. They were orally dosed with 25-mg capsules of ABX464 with 240 ml water under fed or fasted conditions. According to the group, subjects were dosed with 1, 2, 3, 4, or 6 capsules to deliver 25 mg, 50 mg, 75 mg, 100 mg, or 150 mg product, respectively, or the same number of placebo capsules.
Safety assessments and laboratory tests were carried out according to the schedules described in Table S4 for groups dosed every day, every 3 days, and 3 times a day. Follow-up visits were scheduled for 7 days after the last dose and subsequently once every week in order to assess the elimination of the main ABX464 metabolite and to assess the viral load. Follow-up visits were terminated when the virus load was within 0.5 log of the baseline value or after 3 follow-up visits, whichever came first. Prior to the statistical analyses, AEs were coded using the Medical Dictionary for Regulatory Activities (MedDRA dictionary; last available version) in order to be tabulated by system organ class (SOC) and preferred term (PT). The AEs were analyzed according to the treatment emergence phase from the first study drug administration on day 1 up to 48 h after the last study drug administration. The number and percentage of subjects with at least one TEAE were tabulated by SOC and PT for each group and dose. The number of occurrences of TEAEs was also analyzed in the same way by SOC and PT for each group and dose, by grade of severity for each group and dose, and by level of causality to the study drug for each group and dose.

[1] = Group 5 (n = 6), 75 mg q.d., fed, Mild
[2] = Group 5 (n = 6), 75 mg q.d., fed, Moderate
[3] = Group 6 (n = 6), 100 mg q.d., fasted, Mild
[4] = Group 6 (n = 6), 100 mg q.d., fasted, Moderate
[5] = Group 7 (n = 6), 150 mg every 3 days, fed, Mild

SMILES: FC(F)(F)Oc1ccc(Nc2ccc3cccc(Cl)c3n2)cc1 [ABX464]
- Subjects experiencing at least one TEAE: Arthralgia [1]: 0 (0.0) No. (%)
- Subjects experiencing at least one TEAE: Back pain [1]: 0 (0.0) No. (%)
- Subjects experiencing at least one TEAE: Diarrhea [1]: 1 (16.7) No. (%)
- Subjects experiencing at least one TEAE: Flank pain [1]: 0 (0.0) No. (%)
- Subjects experiencing at least one TEAE: Gastrointestinal disorders [1]: 5 (83.3) No. (%)
- Subjects experiencing at least one TEAE: Headache [1]: 5 (83.3) No. (%)
- Subjects experiencing at least one TEAE: Injury, poisoning, and procedural complications [1]: 0 (0.0) No. (%)
- Subjects experiencing at least one TEAE: Musculoskeletal and connective tissue disorders [1]: 0 (0.0) No. (%)
- Subjects experiencing at least one TEAE: Nausea [1]: 3 (50.0) No. (%)
- Subjects experiencing at least one TEAE: Neck pain [1]: 0 (0.0) No. (%)
- Subjects experiencing at least one TEAE: Nervous system disorders [1]: 5 (83.3) No. (%)
- Subjects experiencing at least one TEAE: Pain in extremity [1]: 0 (0.0) No. (%)
- Subjects experiencing at least one TEAE: Sciatica, back pain [1]: 0 (0.0) No. (%)
- Subjects experiencing at least one TEAE: Skin abrasion [1]: 0 (0.0) No. (%)
- Subjects experiencing at least one TEAE: Total [1]: 6 (100.0) No. (%)
- Subjects experiencing at least one TEAE: Upper abdominal pain [1]: 0 (0.0) No. (%)
- Subjects experiencing at least one TEAE: Vomiting [1]: 4 (66.7) No. (%)
- Subjects experiencing at least one TEAE: Abdominal pain [2]: 0 (0.0) No. (%)
- Subjects experiencing at least one TEAE: Arthralgia [2]: 0 (0.0) No. (%)
- Subjects experiencing at least one TEAE: Back pain [2]: 0 (0.0) No. (%)
- Subjects experiencing at least one TEAE: Diarrhea [2]: 0 (0.0) No. (%)
- Subjects experiencing at least one TEAE: Flank pain [2]: 0 (0.0) No. (%)
- Subjects experiencing at least one TEAE: Gastrointestinal disorders [2]: 1 (16.7) No. (%)
- Subjects experiencing at least one TEAE: Headache [2]: 0 (0.0) No. (%)
- Subjects experiencing at least one TEAE: Injury, poisoning, and procedural complications [2]: 0 (0.0) No. (%)
- Subjects experiencing at least one TEAE: Musculoskeletal and connective tissue disorders [2]: 0 (0.0) No. (%)
- Subjects experiencing at least one TEAE: Nausea [2]: 1 (16.7) No. (%)
- Subjects experiencing at least one TEAE: Neck pain [2]: 0 (0.0) No. (%)
- Subjects experiencing at least one TEAE: Nervous system disorders [2]: 0 (0.0) No. (%)
- Subjects experiencing at least one TEAE: Pain in extremity [2]: 0 (0.0) No. (%)
- Subjects experiencing at least one TEAE: Sciatica, back pain [2]: 0 (0.0) No. (%)
- Subjects experiencing at least one TEAE: Skin abrasion [2]: 0 (0.0) No. (%)
- Subjects experiencing at least one TEAE: Total [2]: 1 (16.7) No. (%)
- Subjects experiencing at least one TEAE: Upper abdominal pain [2]: 0 (0.0) No. (%)
- Subjects experiencing at least one TEAE: Vomiting [2]: 0 (0.0) No. (%)
- Subjects experiencing at least one TEAE: Abdominal pain [3]: 0 (0.0) No. (%)
- Subjects experiencing at least one TEAE: Arthralgia [3]: 0 (0.0) No. (%)
- Subjects experiencing at least one TEAE: Back pain [3]: 0 (0.0) No. (%)
- Subjects experiencing at least one TEAE: Diarrhea [3]: 0 (0.0) No. (%)
- Subjects experiencing at least one TEAE: Flank pain [3]: 0 (0.0) No. (%)
- Subjects experiencing at least one TEAE: Gastrointestinal disorders [3]: 2 (33.3) No. (%)
- Subjects experiencing at least one TEAE: Headache [3]: 5 (83.3) No. (%)
- Subjects experiencing at least one TEAE: Injury, poisoning, and procedural complications [3]: 0 (0.0) No. (%)
- Subjects experiencing at least one TEAE: Musculoskeletal and connective tissue disorders [3]: 0 (0.0) No. (%)
- Subjects experiencing at least one TEAE: Nausea [3]: 0 (0.0) No. (%)
- Subjects experiencing at least one TEAE: Neck pain [3]: 0 (0.0) No. (%)
- Subjects experiencing at least one TEAE: Nervous system disorders [3]: 5 (83.3) No. (%)
- Subjects experiencing at least one TEAE: Pain in extremity [3]: 0 (0.0) No. (%)
- Subjects experiencing at least one TEAE: Sciatica, back pain [3]: 0 (0.0) No. (%)
- Subjects experiencing at least one TEAE: Skin abrasion [3]: 0 (0.0) No. (%)
- Subjects experiencing at least one TEAE: Total [3]: 6 (100.0) No. (%)
- Subjects experiencing at least one TEAE: Upper abdominal pain [3]: 2 (33.3) No. (%)
- Subjects experiencing at least one TEAE: Vomiting [3]: 0 (0.0) No. (%)
- Subjects experiencing at least one TEAE: Abdominal pain [4]: 0 (0.0) No. (%)
- Subjects experiencing at least one TEAE: Arthralgia [4]: 0 (0.0) No. (%)
- Subjects experiencing at least one TEAE: Back pain [4]: 0 (0.0) No. (%)
- Subjects experiencing at least one TEAE: Diarrhea [4]: 0 (0.0) No. (%)
- Subjects experiencing at least one TEAE: Flank pain [4]: 0 (0.0) No. (%)
- Subjects experiencing at least one TEAE: Gastrointestinal disorders [4]: 1 (16.7) No. (%)
- Subjects experiencing at least one TEAE: Headache [4]: 0 (0.0) No. (%)
- Subjects experiencing at least one TEAE: Injury, poisoning, and procedural complications [4]: 0 (0.0) No. (%)
- Subjects experiencing at least one TEAE: Musculoskeletal and connective tissue disorders [4]: 0 (0.0) No. (%)
- Subjects experiencing at least one TEAE: Nausea [4]: 0 (0.0) No. (%)
- Subjects experiencing at least one TEAE: Neck pain [4]: 0 (0.0) No. (%)
- Subjects experiencing at least one TEAE: Nervous system disorders [4]: 0 (0.0) No. (%)
- Subjects experiencing at least one TEAE: Pain in extremity [4]: 0 (0.0) No. (%)
- Subjects experiencing at least one TEAE: Sciatica, back pain [4]: 0 (0.0) No. (%)
- Subjects experiencing at least one TEAE: Skin abrasion [4]: 0 (0.0) No. (%)
- Subjects experiencing at least one TEAE: Total [4]: 3 (50.0) No. (%)
- Subjects experiencing at least one TEAE: Upper abdominal pain [4]: 1 (16.7) No. (%)
- Subjects experiencing at least one TEAE: Vomiting [4]: 0 (0.0) No. (%)
- Subjects experiencing at least one TEAE: Abdominal pain [5]: 0 (0.0) No. (%)
- Subjects experiencing at least one TEAE: Arthralgia [5]: 1 (16.7) No. (%)
- Subjects experiencing at least one TEAE: Back pain [5]: 0 (0.0) No. (%)
- Subjects experiencing at least one TEAE: Diarrhea [5]: 0 (0.0) No. (%)
